Data set [1] can be described thus: Excitation and emission spectra of compounds in DMSO or PBS. Type of data set: physicochemical. The following applies: 300 nM in DMSO or PBS pH 7.4. Here is the method:
Stock solutions of Example Compound 3a, Example Compound 3b, Example Compound 3c, Example Compound 3d and Example Compound 8a (1.5 mM in DMSO) were diluted to 300 nM in phosphate buffered saline (PBS, 10 mM phosphate, 140 mM NaCl, 2.7 mM KCl, pH 7.4) or DMSO. Excitation and emission spectra of the compounds were collected using an Infinite M1000 Pro microplate reader (Tecan, Männedorf, Switzerland).

Data set [2] addresses T1, Aβ aggregates (Homo sapiens, UniProt P05067).
T1 construct: compound and antibody double staining of Aβ or tau aggregates; from tissue; host or cells: human AD brain tissue sections (20 μm)
Put plainly: Compound and antibody 4G8 double staining of AD brain tissue sections. Type of data set: binding. Particulars: for Overlap between Fluorescence from tested compound and fluorescence from 4G8 observed / Fluorescence from tested compound observed: 100 nM compound, human AD brain tissue sections; for Overlap between Fluorescence from tested compound and fluorescence from 4G8 observed: Aβ antibody 4G8; for Fluorescence from tested compound observed: double staining with Aβ antibody 4G8; for Fluorescence from 4G8 observed: signal of Aβ antibody 4G8 in the section stained with 100 nM of the compound.

Data set [3] concerns the target T2, tau aggregates (Homo sapiens, UniProt P10636).
T2 construct: tissue sections (20 μm) from human AD brain; from tissue; host or cells: human AD brain tissue sections (20 μm)
Put plainly: Compound and antibody AT100 double staining of AD brain tissue sections. Type of data set: binding. Particulars: for Labelling of immune-positive NFTs and dystrophic neurites / Fluorescence from tested compound observed / Overlap between Fluorescence from tested compound and fluorescence from AT-100 observed: 100 nM compound; for Labelling of immune-positive NFTs and dystrophic neurites: AT100 co-staining, AD brain sections; for Fluorescence from tested compound observed / Overlap between Fluorescence from tested compound and fluorescence from AT-100 observed: human AD brain tissue sections; for Fluorescence from tested compound observed: double staining with tau antibody AT-100; for Overlap between Fluorescence from tested compound and fluorescence from AT-100 observed: tau antibody AT-100; for Fluorescence from AT-100 observed: signal of tau antibody AT-100 in the section stained with 100 nM of the compound.

For data set [4], the system named is Aβ and tau deposits. Put plainly: Co-staining of AD brain sections with PBB3 and Example Compound 3b. Type of data set: binding, human. The following applies: simultaneous 100 nM PBB3 and 100 nM Example Compound 3b. Here is the method:
Frozen brain sections (20 μm) were fixed in 96% EtOH, rehydrated in 50% EtOH and de-ionized water and then incubated in phosphate buffered saline (PBS, 10 mM phosphate, 140 mM NaCl, 2.7 mM KCl, pH 7.4) for 10 min. Solutions containing 100 nM PBB3 and 100 nM Example Compound 3b or 100 nM q-FTAA-CN and 100 nM Example Compound 3a in PBS were added to the sections. After 30 min, the sections were washed with PBS and mounted with Dako fluorescent mounting medium (Dako Cytomation, Glostrup, Denmark). The mounting medium was allowed to solidify over night before collecting emission spectra of the compounds bound to misfolded A ? and tau using an inverted LSM 780 confocal microscope (Carl Zeiss, Oberkochen, Germany) with excitation wavelengths at 405 nm (PBB3 and q-FTAA-CN) and 561 nm (Example Compound 3a and Example Compound 3b).

The test system of data set [5] is Aβ and tau deposits. In words: Staining of AD brain sections with PBB3 alone. The following applies: 100 nM PBB3 alone in PBS pH 7.4, FIG. 6A. It counts as binding, human. Here is the method: Frozen brain sections (20 μm) were fixed in 96% EtOH, rehydrated in 50% EtOH and de-ionized water and then incubated in phosphate buffered saline (PBS, 10 mM phosphate, 140 mM NaCl, 2.7 mM KCl, pH 7.4) for 10 min. The sections were stained with solutions containing 100 nM PBB3 in PBS for 30 min and after rinsing three times with PBS mounted with Dako fluorescent mounting medium (Dako Cytomation, Glostrup, Denmark). The mounting medium was allowed to solidify over night before collecting emission spectra of the compound bound to misfolded Aβ and tau using an inverted LSM 780 confocal microscope (Carl Zeiss, Oberkochen, Germany) with excitation wavelengths at 405 nm (PBB3).

The target of data set [6] is T2, tau aggregates. Put plainly: Example Compound 3b staining of AD brain sections pre-incubated with PBB3 or PBS. Type of data set: binding. Here is the method:
(§1) Frozen brain sections (20 μm) were fixed in 96% EtOH, rehydrated in 50% EtOH and de-ionized water and then incubated in phosphate buffered saline (PBS, 10 mM phosphate, 140 mM NaCl, 2.7 mM KCl, pH 7.4) for 10 min. The sections were stained with solutions containing 1 ? M PBB3 or 1 ? M q-FTAA-CN in PBS for 30 min and after rinsing three times with PBS, the sections was stained with a solution containing 10 nM Example Compound 3b. After 30 min, the sections were washed with PBS and mounted with Dako fluorescent mounting medium (Dako Cytomation, Glostrup, Denmark). The mounting medium was allowed to solidify over night before collecting emission spectra of the compounds bound to misfolded Aβ and tau using an inverted LSM 780 confocal microscope (Carl Zeiss, Oberkochen, Germany) with excitation wavelengths at 405 nm (PBB3 and q-FTAA-CN) and 561 nm (Example Compound 3b).

Data set [7] concerns the target T2, tau aggregates. In words: Example Compound 3b staining of AD brain sections pre-incubated with q-FTAA-CN. Type of data set: binding. The following applies: FIG. 7H, pre-incubated with 1 μM q-FTAA-CN, then 10 nM Example Compound 3b. Here is the method:
as §1

[8] abbreviates: FIG. 7F, pre-incubated with 1 μM PBB3, then 10 nM Example Compound 3b.

SMILES strings stand for the structures.

T2 sequence (P10636 1-441 isoform P10636-8): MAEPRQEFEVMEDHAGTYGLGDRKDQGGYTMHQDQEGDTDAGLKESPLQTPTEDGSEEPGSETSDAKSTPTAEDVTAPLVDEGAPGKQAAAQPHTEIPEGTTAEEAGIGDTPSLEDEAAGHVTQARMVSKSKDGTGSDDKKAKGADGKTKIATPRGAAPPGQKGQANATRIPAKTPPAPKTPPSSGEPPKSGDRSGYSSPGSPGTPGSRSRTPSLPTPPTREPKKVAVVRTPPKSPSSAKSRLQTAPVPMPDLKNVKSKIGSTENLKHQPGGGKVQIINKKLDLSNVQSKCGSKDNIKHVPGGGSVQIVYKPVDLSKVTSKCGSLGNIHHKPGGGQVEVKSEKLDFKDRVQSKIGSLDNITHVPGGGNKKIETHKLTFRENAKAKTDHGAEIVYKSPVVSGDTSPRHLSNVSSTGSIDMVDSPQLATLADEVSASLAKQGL
T1 sequence (P05067 672-713 limits assumed): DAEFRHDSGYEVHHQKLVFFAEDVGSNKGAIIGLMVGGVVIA

With `COC(=O)c1ccc(-c2ccc(/C=C/c3nc4ccccc4s3)s2)s1` [Example Compound 8a], the “Excitation and emission spectra when switching solvent from DMSO to PBS” value in data set [1] is given as “solvatochromatic behavior rendering a blue-shifted excitation spectrum, as well as a red-shifted emission spectrum”. Also, in data set [2], the “Overlap between Fluorescence from tested compound and fluorescence from 4G8 observed” value was “no correlation and no”; the “Fluorescence from tested compound observed” value is reported as “yes”; the “Fluorescence from 4G8 observed” value was “yes”. For the same compound, in data set [3], the “Labelling of immune-positive NFTs and dystrophic neurites” value was “labelled both immune-positive NFTs and dystrophic neurites”; the “Fluorescence from tested compound observed” value is listed as “yes”; the “Overlap between Fluorescence from tested compound and fluorescence from AT-100 observed” value is “yes”; the “Fluorescence from AT-100 observed” value was “yes”.
On to `CNc1ccc(/C=C/C=C/c2nc3ccc(O)cc3s2)cn1` [PBB3, reference compound], for which the “Fluorescence from PBB3 observed” value in data set [4] (FIG. 7E) was “yes”; in data set [6] (setting [8]), “both the Aβ and tau deposits exhibited strong PBB3 fluorescence and yes”. Besides, the “Deposits labelled” value in data set [4] was “Aβ deposits were visualized by the fluorescence from PBB3”; in data set [5], “labelled both Aβ and tau deposits”.
Turning to `CC[n+]1c(/C=C/c2ccc(-c3ccc(I)s3)s2)sc2ccccc21` [Example Compound 3b], in data set [4] (FIG. 7E), the “Fluorescence from Example Compound 3b observed” value is given as “yes”; the “Overlap between Fluorescence from Example Compound 3b and fluorescence from PBB3” value is “no”. For the same compound, in data set [4], the “Deposits labelled” value was “tau deposits, NFTs and dystrophic neurites, displayed characteristic emission”; the “Selectivity and affinity for tau deposits compared with PBB3” value is “higher selectivity and most likely a higher affinity for tau deposits than PBB3”. Also, in data set [2], the “Overlap between Fluorescence from tested compound and fluorescence from 4G8 observed” value is “no correlation and no”; the “Fluorescence from tested compound observed” value is “yes”; the “Fluorescence from 4G8 observed” value is given as “yes”. For the same compound, in data set [3], the “Labelling of immune-positive NFTs and dystrophic neurites” value was “labelled both immune-positive NFTs and dystrophic neurites”; the “Fluorescence from tested compound observed” value is recorded as “yes”; the “Overlap between Fluorescence from tested compound and fluorescence from AT-100 observed” value is recorded as “yes”; the “Fluorescence from AT-100 observed” value is “yes”. The “Fluorescence from Example Compound 3b observed” value in data set [6] (setting [8]) was “no observable Example Compound 3b fluorescence and no”. In data set [6] (FIG. 7G, pre-incubated in PBS only, 10 nM Example Compound 3b), the “Fluorescence from Example Compound 3b observed” value is “fluorescence was observed from the tau aggregates and yes”. Further, in data set [7], the “Fluorescence from Example Compound 3b observed” value was “observed from the tau aggregates and could easily be observed from the q-FTAA-CN positive NFTs as well as from q-FTAA-CN negative dystrophic neurites and yes”; the “Overlap between Fluorescence from Example Compound 3b and fluorescence from q-FTAA-CN” value is recorded as “yes”.

These data come from US11434237B2, “Selective ligands for tau aggregates” (KARIN & STEN MORTSTEDT CBD SOLUTIONS AB, priority 2017, dated 2022).
